Converted amounts (≈) assume the structure as drawn.

Data on 4 compounds can be found in patent publication US9173912B2 (priority 2008, dated 2015).

The test system of assay [1] is herpes simplex viruses type 1 (HSV-1). The assay can be described thus: Virustatic activity: supernatant of infected human cells after inoculation with extract. It is filed as cell-based. An excerpt: (§1) In addition, a quite universal usability of the invented extract on viral diseases could be shown with herpes simplex viruses type 1 (HSV-1):
The definition of virustatic activity is then identified via the supernatant of infected human cells after inoculation with extract. Aciclovir is the accepted positive control.

The test system is the same in assay [2]. The assay can be described thus: Virucidal activity: viral suspension exposed to extract, then infectiousness in cells measured. It is filed as cell-based. The note with it: Herpes Simplex Virus I. As to the method:
as §1
In order to define the virucidal activity, a viral suspension is exposed to the extract and then the infectiousness of viruses in the cells is measured. Ethanol is used for positive controls.

A short description of assay [3]: Inactivation of superoxide anions after stimulation with PMA (colour reduction). To be noted: test concentration 200 μg/ml, versus untreated control (0% inactivation). Here is the method:
The concentration of oxygen radicals (superoxide anions) is regarded as measure for oxidative stress in organic tissues. By means of quantifying superoxide anions with a color reduction after stimulating with phorbol-12-myristat-13-acetate (PMA), the following antioxidative capacities have been recorded (test concentration 200 μg/ml) in comparison to an untreated control (0% inactivation): […]

The target in assay [4] is neuraminidase of Clostridium perfringens. The note with it: read-out: IC 50 neuraminidase, Zanamivir column.

Consider `Nc1nc2c(ncn2COCCO)c(=O)[nH]1` [Aciclovir], for which, in assay [1] (Human alphaherpesvirus 1, Herpes Simplex Virus I, read-out: IC 50 Virustatic), the IC50 was found to be 0.0002 mg/mL (≈ 0.000888 mM). The “IC 50 Virucidal” value in assay [2] is listed as “ineffective”.

For the compound `CCO` [Ethanol], the “IC 50 Virustatic” value in assay [1] (Herpes Simplex Virus I) is reported as “ineffective”. For the same compound, in assay [2] (Human alphaherpesvirus 1, read-out: IC 50 Virucidal), the IC50 is 80 mg/mL (≈ 1740 mM).

In the case of `O=C1O[C@H]([C@@H](O)CO)C(O)=C1O` [Vitamin C], the “Antioxidative capacity, inactivation of superoxide anions” value in assay [3] is 96.6%.

As to `CC(=O)N[C@H]1[C@H]([C@H](O)[C@H](O)CO)OC(C(=O)O)=C[C@@H]1N=C(N)N` [Zanamivir], in assay [4], the IC50 is greater than 200 µM.
